Entries after “also recorded” stand apart in the source; their conditions may differ. Where two headings read alike, the source gives them in different places.
Key:
[1] = test system: cytochrome c release from mitochondria isolated from lean (non-diabetic) ZDF rats; test: Cytochrome c release from isolated mitochondria, Western blot; assay type: cell-based, rat; conditions: for cytochrome c release into supernatant: 5 mM alone, 30 min incubation
[2] = test system: citrate synthase in mitochondria isolated from lean (non-diabetic) ZDF rats; test: Residual citrate synthase activity in mitochondrial pellets (marker of inner membrane integrity); assay type: cell-based, rat
Method: An enzyme assay was then used to evaluate the mitochondrial pellets to determine the contents of the matrix protein citrate synthase in order to evaluate the integrity of the mitochondria after the respective incubations. Citrate synthase activity was determined according to the methods decscribed in Newsholme and Crabtree, J. Exp. Zoo. 239(2): 159-67 (1986). In brief, frozen mitochondrial pellets were resuspended in a reaction mixture containing 50 mM Tris-HCl (pH8.0), 0.1 mM acetyl coenzyme A and 0.2 mM 5,5′-dithiobis-(2-nitrobenzoic acid) (DTNB). Reactants were incubated for five minutes prior to measurement and the assay started by the addition of 5 mM oxaloacetate. Absorbance of DTNB was then followed at 412 nm and units were calculated relative to soluble protein using the biccichonic acid method (BCA, Pierce) with bovine serum albumin as standard.

[3] = test system: mitochondria isolated from hearts of obese ZDF rats and lean littermates; assay type: cell-based, rat
[4] = test system: electron transport chain complexes I to V of left ventricle mitochondria; conditions: rat, in vivo
Method: Male Wistar rats (starting body weight from about 200 to about 250 g) were maintained on Teklad TB 2108 (Harlan UK) rat chow and tap water ab libitum. At eight weeks the rats were randomized into two groups: control and diabetic (STZ). Rats were made diabetic by injection with 60 mg/kg STZ and the control rats were given a corresponding amount of 0.9% sodium chloride.
The control groups received Milli-Q water ab libitum during the corresponding period. At the end of the eleven week treatment period, rats were anaesthetized with isoflurane, the abdominal cavity was opened and a catheter inserted into the vena cava. Approximately 1 mL of blood was removed for future analysis and 10000 U/Kg heparin infused. […]
Fiber respiration was then measured in a respirometer at 30° C. at high resolution using Clark-type electrodes and integrated software that was used for data acquisition and analysis (DatLab 4, Oroboros, Oxygraph; Innsbruck, Austria). […] Respiratory rates (oxygen fluxes) were expressed as pmol O2. […]
Respiratory flux rates through complex I (GM2 and GM3), complexes I and II (GMS3) and II (S3) were determined to measure the intactness of the individual complexes (GM3 and S3), and to estimate maximal flux rates through the electron transport chain.

[5] = in the presence of 5 mM spermine

SMILES	cytochrome c release into supernatant [1]	cytochrome c release on co-incubation with 5 mM spermine ([1]; 5 mM spermine plus test polyamine)	concentration dependence of diminished cytochrome c release ([1]; […] vs 5 mM, with 5 mM spermine)	residual citrate synthase activity ([2]; 5 mM alone, after 30 min)	citrate synthase activity in spermine treated mitochondria [2, 5]	relative potency in improving residual citrate synthase activity [2, 5]	change in mitochondrial volume ([3]; 0-5 mM, no CaCl2, 30 minutes, diabetic or control mitochondria)	effect on swelling at concentrations above 0.625 mM ([3]; 150 μM CaCl2, mitochondria from obese and lean rats)	cytochrome C oxidase flux (TMPD plus ascorbate) [4]	respiration flux rates of control treated mitochondria [4]	incubation time to maximum release of cytochrome c ([1]; data not shown)	residual citrate synthase activity ([2]; 5 mM alone)	residual citrate synthase activity ([2]; lower concentrations than 5 mM)	change in mitochondrial volume [3]	effect on swelling at concentrations above 0.625 mM [3]	relative inhibition of Ca2+ induced swelling among the three polyamines [3]
NCCCCNCCCN [spermidine]	caused cytochrome c release at 5 mM, albeit less than in the case of spermine	reduced, though to a lesser degree; also recorded: diminished cytochrome c release	less potent than when 5 mM was used	increased amounts of residual citrate synthase activity compared to control samples	improved citrate synthase activity, although not as effectively; also recorded: capable of improving residual citrate synthase activity	markedly less potent than triethylenetetramine dihydrochloride	no detectable change in mitochondrial volume	continued to have a protective effect; also recorded: continue to protect mitochondria from swelling								
NCCNCCNCCN.O=C(O)CCC(=O)O.O=C(O)CCC(=O)O [triethylenetetramine disuccinate]									significant improvement in cytochrome C oxidase	No significant effect						
NCCCNCCCCNCCCN [spermine]	release of large amounts of cytochrome c										30 min	rapid loss of citrate synthase activity	less severe impact on the residual citrate synthase activity	led to swelling of mitochondria	induced swelling; also recorded: appears to induce swelling	greatest inhibition of swelling
